Experiments:
Experiment in all cases: relative viability (nuclei count vs DMSO), 5 days (fraction); higher = more cells survive
[1] = compound: CC1=NN=C(O1)C2=NN=C(C=C2)N3CCC(CC3)OC4=C(C=CC(=C4)F)Cl + Cc1nc(Nc2ncc(C(=O)Nc3c(C)cccc3Cl)s2)cc(N2CCN(CCO)CC2)n1 [Dasatinib] (partner 0.075 µM)
Summary of the method: (§1)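 Five library-drug doses in √10 steps were combined with a fixed anchor-drug dose, or a single drug was given alone, by pin tool to lung cancer cell lines in 1536-well plates the day after seeding. Nuclei were stained and counted after 5 days. Relative viability is the nuclei count in treated wells over that in vehicle wells, taken as the median of duplicate plates.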

[2] = compound: CC1=NN=C(O1)C2=NN=C(C=C2)N3CCC(CC3)OC4=C(C=CC(=C4)F)Cl + CCNC(=O)c1noc(-c2cc(C(C)C)c(O)cc2O)c1-c1ccc(CN2CCOCC2)cc1 [Luminespib] (partner 0.01 µM)
Summary of the method: as §1

Tosedostat + Bortezomib = compound: CC(C)C[C@@H](C(=O)N[C@H](C(=O)OC1CCCC1)c1ccccc1)[C@H](O)C(=O)NO [Tosedostat] + CC(C)C[C@H](NC(=O)[C@H](Cc1ccccc1)NC(=O)c1cnccn1)B(O)O [Bortezomib] (partner 0.002 µM)
Summary of the method: as §1

Tosedostat + Decitabine = compound: CC(C)C[C@@H](C(=O)N[C@H](C(=O)OC1CCCC1)c1ccccc1)[C@H](O)C(=O)NO [Tosedostat] + Nc1ncn([C@H]2C[C@H](O)[C@@H](CO)O2)c(=O)n1 [Decitabine] (partner 2 µM)
Summary of the method: as §1

PC-3 [JPC-3] showed a relative viability ([1]; first compound 0.253 µM) of 0.944, a relative viability ([1]; first compound 0.8 µM) of 0.813 and a relative viability ([1]; first compound 2.53 µM) of 0.877. It also gave a relative viability ([1]; first compound 8 µM) of 0.852, a relative viability ([2]; first compound 0.253 µM) of 0.674 and a relative viability ([2]; first compound 0.8 µM) of 0.686. It also gave a relative viability ([2]; first compound 2.53 µM) of 0.611, a relative viability ([2]; first compound 8 µM) of 0.603 and a relative viability (Tosedostat + Bortezomib; first compound 0.02 µM) of 0.819. It also gave a relative viability (Tosedostat + Bortezomib; first compound 0.06325 µM) of 0.771, a relative viability (Tosedostat + Bortezomib; first compound 0.2 µM) of 0.823 and a relative viability (Tosedostat + Bortezomib; first compound 0.6325 µM) of 0.776. The relative viability (Tosedostat + Bortezomib; first compound 2 µM) was 0.552, the relative viability (Tosedostat + Decitabine; first compound 0.02 µM) was 0.833 and the relative viability (Tosedostat + Decitabine; first compound 0.06325 µM) was 0.813. It also gave a relative viability (Tosedostat + Decitabine; first compound 0.2 µM) of 0.872, a relative viability (Tosedostat + Decitabine; first compound 0.6325 µM) of 0.768 and a relative viability (Tosedostat + Decitabine; first compound 2 µM) of 0.555.
In the case of PC-14, the relative viability ([1]; first compound 0.253 µM) is reported as 0.264, the relative viability ([1]; first compound 0.8 µM) is reported as 0.242 and the relative viability ([1]; first compound 2.53 µM) is reported as 0.283. For the same cell line, the relative viability ([1]; first compound 8 µM) was 0.231, the relative viability ([2]; first compound 0.253 µM) was 0.163 and the relative viability ([2]; first compound 2.53 µM) was 0.22. It also gave a relative viability ([2]; first compound 8 µM) of 0.142, a relative viability (Tosedostat + Bortezomib; first compound 0.02 µM) of 0.79 and a relative viability (Tosedostat + Bortezomib; first compound 0.06325 µM) of 0.814. The relative viability (Tosedostat + Bortezomib; first compound 0.2 µM) was 0.896, the relative viability (Tosedostat + Bortezomib; first compound 0.6325 µM) was 0.845 and the relative viability (Tosedostat + Bortezomib; first compound 2 µM) was 0.944. It also gave a relative viability (Tosedostat + Decitabine; first compound 0.02 µM) of 0.218, a relative viability (Tosedostat + Decitabine; first compound 0.06325 µM) of 0.177 and a relative viability (Tosedostat + Decitabine; first compound 0.2 µM) of 0.146. For the same cell line, the relative viability (Tosedostat + Decitabine; first compound 0.6325 µM) was 0.0843 and the relative viability (Tosedostat + Decitabine; first compound 2 µM) was 0.0753.
Cell Line RERF-LC-KJ has a relative viability ([1]; first compound 0.253 µM) of 0.553, a relative viability ([1]; first compound 0.8 µM) of 0.559 and a relative viability ([1]; first compound 2.53 µM) of 0.619. For the same cell line, the relative viability ([1]; first compound 8 µM) was 0.581, the relative viability ([2]; first compound 0.253 µM) was 0.75 and the relative viability ([2]; first compound 0.8 µM) was 0.647. The relative viability ([2]; first compound 2.53 µM) was 0.612, the relative viability ([2]; first compound 8 µM) was 0.673 and the relative viability (Tosedostat + Bortezomib; first compound 0.02 µM) was 1.13. For the same cell line, the relative viability (Tosedostat + Bortezomib; first compound 0.06325 µM) was 1.3, the relative viability (Tosedostat + Bortezomib; first compound 0.2 µM) was 1.05 and the relative viability (Tosedostat + Bortezomib; first compound 0.6325 µM) was 0.923. It also gave a relative viability (Tosedostat + Bortezomib; first compound 2 µM) of 0.892, a relative viability (Tosedostat + Decitabine; first compound 0.02 µM) of 0.657 and a relative viability (Tosedostat + Decitabine; first compound 0.06325 µM) of 0.622. For the same cell line, the relative viability (Tosedostat + Decitabine; first compound 0.2 µM) was 0.615, the relative viability (Tosedostat + Decitabine; first compound 0.6325 µM) was 0.495 and the relative viability (Tosedostat + Decitabine; first compound 2 µM) was 0.457.
For SK-LU-1, the relative viability ([1]; first compound 0.253 µM) was 0.166, the relative viability ([1]; first compound 2.53 µM) was 0.0949 and the relative viability ([1]; first compound 8 µM) was 0.119. It also gave a relative viability ([2]; first compound 0.253 µM) of 0.218, a relative viability ([2]; first compound 2.53 µM) of 0.207 and a relative viability ([2]; first compound 8 µM) of 0.185. It also gave a relative viability (Tosedostat + Bortezomib; first compound 0.02 µM) of 1.33, a relative viability (Tosedostat + Bortezomib; first compound 0.06325 µM) of 1.14 and a relative viability (Tosedostat + Bortezomib; first compound 0.2 µM) of 1.15. The relative viability (Tosedostat + Bortezomib; first compound 0.6325 µM) was 0.921, the relative viability (Tosedostat + Bortezomib; first compound 2 µM) was 0.718 and the relative viability (Tosedostat + Decitabine; first compound 0.02 µM) was 0.624. The relative viability (Tosedostat + Decitabine; first compound 0.06325 µM) was 0.651, the relative viability (Tosedostat + Decitabine; first compound 0.2 µM) was 0.563 and the relative viability (Tosedostat + Decitabine; first compound 0.6325 µM) was 0.471. The relative viability (Tosedostat + Decitabine; first compound 2 µM) was 0.454.
For SW 1573, the relative viability ([1]; first compound 0.253 µM) was 0.452, the relative viability ([1]; first compound 0.8 µM) was 0.535 and the relative viability ([1]; first compound 2.53 µM) was 0.459. It also gave a relative viability ([1]; first compound 8 µM) of 0.315, a relative viability ([2]; first compound 0.253 µM) of 0.184 and a relative viability ([2]; first compound 0.8 µM) of 0.204. It also gave a relative viability ([2]; first compound 2.53 µM) of 0.264, a relative viability ([2]; first compound 8 µM) of 0.2 and a relative viability (Tosedostat + Bortezomib; first compound 0.02 µM) of 1.1. The relative viability (Tosedostat + Bortezomib; first compound 0.06325 µM) was 0.96, the relative viability (Tosedostat + Bortezomib; first compound 0.2 µM) was 0.938 and the relative viability (Tosedostat + Bortezomib; first compound 0.6325 µM) was 0.709. For the same cell line, the relative viability (Tosedostat + Bortezomib; first compound 2 µM) was 0.949, the relative viability (Tosedostat + Decitabine; first compound 0.02 µM) was 0.675 and the relative viability (Tosedostat + Decitabine; first compound 0.06325 µM) was 0.504. It also gave a relative viability (Tosedostat + Decitabine; first compound 0.2 µM) of 0.482, a relative viability (Tosedostat + Decitabine; first compound 0.6325 µM) of 0.451 and a relative viability (Tosedostat + Decitabine; first compound 2 µM) of 0.415.

— the supplement of paper PMC10307832
